Test results as given in US20040142979A1, “Heteroarylsulfonylmethyl hydroxamic acids and amides and their use as protease inhibitors” (priority 2002, published 2004).

What was measured:
Human recombinant MMP-1 = biological target: T1, Human recombinant MMP-1 (Homo sapiens, UniProt P03956); assay: In vitro MMP inhibition analysis (fluorogenic peptide substrate), MMP-1; assay type: biochemical; settings: human recombinant enzyme; 4 μM substrate (A); apparent Ki without substrate correction
T1 construct: made in house; host or cells: MMP-1-transfected HT-1080 cells (spent media)
T1 sequence (P03956 100-469): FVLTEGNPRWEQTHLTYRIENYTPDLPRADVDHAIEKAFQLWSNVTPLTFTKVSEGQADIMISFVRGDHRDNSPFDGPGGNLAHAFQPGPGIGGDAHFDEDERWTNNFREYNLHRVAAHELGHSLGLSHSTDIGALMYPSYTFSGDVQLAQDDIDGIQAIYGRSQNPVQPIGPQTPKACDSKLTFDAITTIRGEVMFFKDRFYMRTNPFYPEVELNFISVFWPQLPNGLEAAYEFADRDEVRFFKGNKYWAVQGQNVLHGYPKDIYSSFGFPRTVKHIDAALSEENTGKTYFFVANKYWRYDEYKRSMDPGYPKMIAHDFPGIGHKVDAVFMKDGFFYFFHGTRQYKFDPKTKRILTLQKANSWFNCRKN
Description: (§1) Several compounds and salts were analyzed in an in vitro assay to determine their ability to inhibit the MMP cleavage of peptide substrates. Inhibition constant (Ki) were calculated from the assayed compound-MMP interactions.
(§2) Human recombinant MMP-1, MMP-2, MMP-9, MMP-13, and MMP-14 were used in this assay. All enzymes were prepared in Assignee's laboratories following usual laboratory procedures. Protocols for the preparation and use of these enzymes are available in the scientific literature. See, e.g., Enzyme Nomenclature (Academic Press, San Diego, Calif., 1992) (and the citations therein). See also, Freije et al., J. Biol. Chem., 269(24), 16766-16773 (1994).
The MMP-1 proenzyme was purified from the spent media of MMP-1-transfected HT-1080 cells provided by Dr. Harold Welgus of Washington University (St. Louis, Mo.). The protein was purified on a zinc chelating column.
(§3) All MMPs were activated using 4-aminophenylmercuric acetate (“APMA”, Sigma Chemical, St. Louis, Mo.) or trypsin. MMP-9 also was activated using human recombinant MMP-3 (purified in Assignee's laboratory following standard cloning and purification techniques).
(§4) The following fluorogenic, methoxycoumarin-containing polypeptide substrate (A) was used in the MMP inhibition assays:
(§5) MCA-ArgProLeuGlyLeuDpaAlaArgGluArgNH2 (A)
(§6) “MCA” is 7-methoxycoumarin-4-yl acetyl. Substrate (A) was prepared Assignee's laboratory. In the absence of MMP inhibitory activity, the substrate is cleaved at the Gly-Leu peptide bond. This cleavage separates the highly fluorogenic peptide from the 2,4-dinitrophenyl quencher, thus resulting in increase of fluorescent intensity.
(§7) The stock solutions of the assayed compounds and salts were prepared in 1% dimethyl sulfoxide (DMSO). These stock solutions were diluted in Buffer A (100 mM Tris-HCl, 100 mM NaCl, 10 mM CaCl2, 0.05% polyoxyethylene 23 lauryl ether, pH 7.5) to obtain solutions with different compound concentrations, i.e., assay solutions with different concentrations of the assayed MMP inhibitory compound. The experiment controls contained the same amount of Buffer A/DMSO as the assayed sample, but contained none of the tested compound or salt.
(§8) The assays from which the Ki determinations were made were performed as follows. The assayed compound samples were incubated in separate wells of untreated white polystyrene plates (Nunc Nalgene International, Rochester, N.Y.), and analyzed on a Tecan SpectraFlour Plus plate reader. The excitation wavelength was 330 nm, and the emission wavelength -420 nm. All samples (assayed compounds and controls) were incubated in separate plate wells at room temperature for 1 hr in the presence of 4 μM of MMP substrate (A). In the absence of MMP inhibitory activity, substrate (A) was cleaved at the Gly-Leu bond resulting in an increase of relative fluorescence. Inhibition was observed as a reduced rate of this increase in relative fluorescence. […] This protocol is a modification of method by Knight et al., FEBS Lett., 296(3), 263-266 (1992). Apparent inhibitory constants were determined by non-linear regression of reaction velocity as a function of inhibitor and enzyme concentration using Morrison's equation, as described by Kuzmic, P., et al., Anal. Biochem., 286(1):45-50 (2000). Modifications were made in the non-linear regression method to allow a common control reaction rate and effective enzyme concentration to be shared between all dose-response relationships on a given assay plate. Since the substrate concentration was chosen to be at or below the Km, the apparent Ki's from this analysis were reported as Ki's without correction for the influence of substrate.
The above protocols were used to determine MMP inhibition Ki constants for the compounds in Examples 1, 2, and 4-42 above. All Ki values in Table 3 are given in nM units.

Human recombinant MMP-13 = biological target: T2, Human recombinant MMP-13 (Homo sapiens, UniProt P45452); assay: In vitro MMP inhibition analysis (fluorogenic peptide substrate), MMP-13; assay type: biochemical; settings: human recombinant enzyme; 4 μM substrate (A); apparent Ki without substrate correction
T2 construct: made in house; host or cells: baculovirus / insect cells
Description: as §1, §2
The MMP-13 was obtained as a proenzyme from a full-length cDNA clone using baculovirus, as described by V. A. Luckow, “Insect Cell Expression Technology,” Protein Engineering: Principles and Practice, pp. 183-218 (edited by J. L. Cleland et al., Wiley-Liss, Inc., 1996). The expressed proenzyme was first purified over a heparin agarose column, and then over a chelating zinc chloride column. The proenzyme was then activated by APMA for use in the assay. […] See also, O'Reilly et al, Baculovirus Expression Vectors: A Laboratory Manual (W. H. Freeman and Co., New York, N.Y., 1992). See also, King et al., The Baculovirus Expression System: A Laboratory Guide (Chapman & Hall, London, England, 1992).
as §3, §4, §5, §6, §7
as §8, with “Modifications were made in the non-linear regression method to allow a common control reaction rate and effective enzyme concentration to be shared between all dose-response relationships on a given assay plate.” left out
All Ki values in Table 3 are given in nM units.

| Compound | Ki (Human recombinant MMP-1) [nM] | Ki (Human recombinant MMP-13) [nM] |
| --- | --- | --- |
| CCN(CC)C(=O)c1ccc(-c2ccc(S(=O)(=O)C3(C(=O)NO)CCOCC3)cn2)cc1 [Example 79] | > 10000 | 607 |
| CN(C(=O)c1ccc(-c2ccc(S(=O)(=O)C3(C(=O)NO)CCOCC3)cn2)cc1)c1ccc(OC(F)(F)F)cc1 [Example 81] | > 10000 | 264 |

Second part, the compound after the results:

| Ki (Human recombinant MMP-1) [nM] | Ki (Human recombinant MMP-13) [nM] | Compound |
| --- | --- | --- |
| > 10000 | 229 | CC(C)CN(C)C(=O)c1ccc(-c2ccc(S(=O)(=O)C3(C(=O)NO)CCOCC3)cn2)cc1 [Example 82] |
| > 10000 | 577 | O=C(NO)C1(S(=O)(=O)c2ccc3c(c2)sc2nc(-c4ccccc4)cn23)CCOCC1 [Example 83] |
| 4480 | 0.79 | O=C(NO)C1(S(=O)(=O)c2ccc(-c3ccc(OC(F)(F)F)cc3)nc2)CCOCC1 [Example 84] |
